Experimental data from PMC2655144 (Biochemistry, 2008).
Where “and” joins values, the source holds several entries; their conditions need not be identical. Identical values can stand only once. Like-named read-outs stand apart in the source and are kept apart here.

Experiments:
AChE = conditions: cited from earlier work; for i2 for thioflavin T with A-site ligand: ternary complex with thioflavin T
carbamoylated AChE (EC) = carbamoylated AChE (EC) (Homo sapiens, UniProt P22303); experiment: Carbachol binding to carbamoylated AChE
recombinant human AChE = recombinant human AChE (Homo sapiens, UniProt P22303); type: biochemical; conditions: for k12 + k21: 15.6 μM thioflavin T; for k122: two-component fit, minor component E2
[1] = molecular target: free AChE (E), recombinant human AChE (Homo sapiens, UniProt P22303); conditions: cited from earlier work
[2] = maximum parameter range fit, iEC fixed at 1e-6
[3] = maximum parameter range fit, iECKECS fixed at 8 mM
[4] = maximum parameter range fit, i fixed at 1e-6
[5] = maximum parameter range fit, iKs fixed at 12 mM

Sequence of free AChE (E), recombinant human AChE (P22303 32-614): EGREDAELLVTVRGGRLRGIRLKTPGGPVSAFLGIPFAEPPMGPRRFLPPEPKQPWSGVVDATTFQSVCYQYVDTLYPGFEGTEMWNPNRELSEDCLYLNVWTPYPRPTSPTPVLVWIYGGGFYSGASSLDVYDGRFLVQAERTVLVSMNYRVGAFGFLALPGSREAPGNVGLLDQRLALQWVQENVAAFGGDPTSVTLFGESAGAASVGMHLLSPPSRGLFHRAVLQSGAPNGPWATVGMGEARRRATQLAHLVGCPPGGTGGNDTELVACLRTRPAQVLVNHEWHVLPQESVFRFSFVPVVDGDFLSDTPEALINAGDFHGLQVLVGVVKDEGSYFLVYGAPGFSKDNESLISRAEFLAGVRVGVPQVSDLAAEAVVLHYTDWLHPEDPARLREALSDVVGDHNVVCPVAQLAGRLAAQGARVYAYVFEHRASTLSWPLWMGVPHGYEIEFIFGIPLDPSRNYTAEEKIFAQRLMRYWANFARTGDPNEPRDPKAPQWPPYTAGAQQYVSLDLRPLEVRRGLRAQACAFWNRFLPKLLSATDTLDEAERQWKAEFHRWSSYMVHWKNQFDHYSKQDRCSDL
Sequence of recombinant human AChE (P22303 32-614): as above
Sequence of carbamoylated AChE (EC) (P22303 32-574 limits assumed): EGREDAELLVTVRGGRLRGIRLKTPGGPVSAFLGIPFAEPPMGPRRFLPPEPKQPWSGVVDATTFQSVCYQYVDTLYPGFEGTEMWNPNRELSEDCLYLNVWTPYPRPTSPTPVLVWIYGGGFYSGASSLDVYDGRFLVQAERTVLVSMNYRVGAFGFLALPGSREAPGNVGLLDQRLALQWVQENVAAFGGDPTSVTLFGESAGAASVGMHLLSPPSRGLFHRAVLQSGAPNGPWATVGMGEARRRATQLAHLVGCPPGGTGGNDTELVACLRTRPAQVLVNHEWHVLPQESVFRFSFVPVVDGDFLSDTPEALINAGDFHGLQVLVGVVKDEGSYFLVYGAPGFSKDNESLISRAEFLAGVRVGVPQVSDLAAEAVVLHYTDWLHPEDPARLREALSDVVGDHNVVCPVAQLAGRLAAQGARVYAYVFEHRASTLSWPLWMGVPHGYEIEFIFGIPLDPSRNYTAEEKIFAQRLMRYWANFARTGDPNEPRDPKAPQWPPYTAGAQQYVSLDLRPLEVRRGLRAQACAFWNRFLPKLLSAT

CC(=O)Nc1cccc([N+](C)(C)C)c1 [ATMA, 3-(acetamido)-N,N,N-trimethylanilinium]
i2 for propidium with A-site ligand (AChE; ternary complex with propidium): 9.5 | i2 for thioflavin T with A-site ligand (AChE): 3.1

C[N+](C)(C)CCOC(N)=O [carbachol, carbamoylcholine chloride]
iEC (carbamoylated AChE (EC)): 1.23 | Kd (carbamoylated AChE (EC); KECM+S, combined binding to A- and P-sites in EC, iEC2 fixed at 0.90): 1700 ± 400 µM | Kd (carbamoylated AChE (EC); KECM+S, maximum parameter range fit, iEC fixed at 1e-6): 1660 µM | Kd (carbamoylated AChE (EC); KECM+S, maximum parameter range fit, iECKECS fixed at 8 mM): 1660 µM | Kd (carbamoylated AChE (EC); KECM, A-site in EC, iEC2 fixed at 0.90): 1800 ± 500 µM | Kd (carbamoylated AChE (EC); KECM, maximum parameter range fit, iEC fixed at 1e-6): 1660 µM | fECSL/fESL (carbamoylated AChE (EC); for the three sets in Tables 1 and 2): 1.14 ± 0.03 | increase of fluorescence of bound thioflavin T when carbachol bound to the A-site in ternary complex with EC (carbamoylated AChE (EC); from fECL/fECSL): about 20% | fECL/fECSL (carbamoylated AChE (EC); iEC2 fixed at 0.90): 0.83 and 0.83 ± 0.01 | Kd (carbamoylated AChE (EC); iECKECS, P-site in EC, iEC2 fixed at 0.90): 32000 ± 2000 µM | Kd (carbamoylated AChE (EC); iECKECS, maximum parameter range fit, iEC fixed at 1e-6): 34000 µM | fECL/fECSL (carbamoylated AChE (EC); [2]): 0.83 | iEC2 (carbamoylated AChE (EC); [2]): 0.96 | fECL/fECSL (carbamoylated AChE (EC); [3]): 0.83 | iEC (carbamoylated AChE (EC); [3]): 3.5 | iEC2 (carbamoylated AChE (EC); [3]): 0.21 | k12 + k21 (recombinant human AChE; 1.67 mM carbachol, one-component fit (eq 6)): 5.94 ± 0.02 min⁻¹ | k12 + k21 (recombinant human AChE; 1.67 mM carbachol, two-component fit (eq A2)): 6.53 ± 0.02 min⁻¹ | k122 (recombinant human AChE; 1.67 mM carbachol): 0.68 ± 0.04 | k12 + k21 (recombinant human AChE; 60 mM carbachol, one-component fit (eq 6)): 23.8 ± 0.3 min⁻¹ | k12 + k21 (recombinant human AChE; 60 mM carbachol, two-component fit (eq A2)): 27.0 ± 0.4 min⁻¹ | k122 (recombinant human AChE; 60 mM carbachol): 4.3 ± 0.3 | i [1]: 0.92 | fEL/fESL [1, 4]: 1.50 | i2 [1, 4]: 1.08 | fEL/fESL [1, 5]: 1.50 | i [1, 5]: 1.59 | i2 [1, 5]: 0.42 | fEL/fESL ([1]; one-site fit, (iKS)^−1 fixed at 0): 1.85 | Kd ([1]; read-out: iKs, P-site in E, i2 fixed at 0.90): 26000 ± 4000 µM

CC[N+](C)(C)c1cccc(O)c1 [edrophonium]
i2 for thioflavin T with A-site ligand (AChE): 1.12
